Measurements reported in patent publication US8883504B2, “Cell differentiation suppressing agent, method of culturing cells using the same, culture solution, and cultured cell line” (Asahi Kasei Kabushiki Kaisha, priority 2003, dated 2014).

Tested on: Oct-3/4 gene
Assay: Oct-3/4 gene expression level by real time PCR (ES cell differentiation inhibition assay 2)
Type: cell-based, mouse
Conditions: D3ES cells, 7 days; for expression of Oct-3/4 gene in comparison with ES cells cultured in the medium without the differentiation inhibiting agent: GAPDH internal standard, FIG. 6; for effect of keeping the expression of the Oct-3/4 gene relative to ESGRO: compared with 1,000 units/mL of ESGRO
Description: For the D3ES cells prepared by the method described in (3) preparation of a mouse ES cell of Example 1, 8×10^4 cells were seeded in a 10 cm-diameter cell culture dish coated previously with a 0.1% aqueous gelatin solution to make 10 mL of the ES cell assay medium. 1 mL of the differentiation inhibiting agent A to F, which were dissolved in dimethylsulfoxide (DMSO) or culture medium or their mixture to make 40 μg/mL per each dish, or ESGRO, which was adjusted to make 10^4 unit/mL, was added, and culturing was carried out at 37° C. in 5% […] incubator for 7 days. To the culture medium was added DMSO to make the final concentration 0.1% or lower.
A total RNA was extracted from the ES cells cultured by the method described in (1) ES cell differentiation inhibition assay 2 as described above, by using ISOGEN (K.K. Nippon Gene, Japan made) by the attached method. First, the medium was removed from the dish after the culture, the cells were washed twice with 10 mL of PBS, and dissolved in 1 mL of ISOGENE. After leaving stand at room temperature for 5 minutes, the solution was collected in a 1.5 mL Eppendorf tube. 0.2 mL of chloroform (Wako Pure Chemical Industries made) was added, shaken for 15 seconds and, then, left stand at room temperature for 2 or 3 minutes. The solution was centrifuged at 4° C. at 10000 rpm for 10 minutes by using a micro centrifuge (TOMY SEIKO Corp. made). 400 μL of the supernatant was transferred to a fresh 1.5 mL Eppendorf tube, 500 μL of isopropanol (Wako Pure, Chemical Industries made) was added, and left stand at room temperature for 10 minutes, and, then, centrifuged at 4° C. at 10000 rpm for 10 minutes by using the micro centrifuge. After the supernatant was removed, 1 mL of a 70% aqueous ethanol solution was added followed by shaking and, then, centrifugation was carried out at 4° C. at 10000 rpm for about 5 minutes by using, the micro centrifuge. After the supernatant was removed, a precipitation was dried and dissolved in 30 μL of distilled water to obtain the total RNA solution.
2 μg of the thus obtained total RNA was used as a template to synthesize a cDNA according to the attached protocol by using Deoxyribonuclease I (Amplification Grade)(Invitrogen Corp. made), Oligo(dT) 12-18 primer (Invitrogen Corp. made, 18418-012) and Omniscript reverse transcriptase (QIAGEN Corp, made). Thus, a reaction solution was prepared by adding 1 μL of 10× DNaseI Reaction Buffer, 1 μL of 10× DNaseI (all were made by Invitrogen Corp.) and distilled water to 2 μg of total RNA to make 10 μL in total, and the mixture was incubated at room temperature for 10 minutes. 1 μL of 25 mM EDTA solution was added and heated at 65° C. for 10 minutes. The mixture was cooled to room temperature, and then, 2 μL of 10× Buffer RT, 2 μL of 5 mM dNTP Mix, 2 μL of Oligo(dT) 12-18 primer, 0.25 μL of RNaseOUT (Invitrogen Corp. made, 10777-019) and 1 μL of Omniscript Reverse Transcriptase were added, and RNase-free purified water was added to give the total volume of 20 μL, and the mixture was incubated at 37° C. for 60 minutes to obtain cDNA solution. A portion of the synthesized cDNA obtained in such the way was diluted 5 folds with distilled water, and 2 μL of the solution was used as the template to conduct PCR by using Light Cycler-Fast Start DNA Master SYBR Green I Kit (Roche Diagnostics Corp. made) according to the attached protocol. The expression levels of the Oct-3/4 gene and glyceraldehyde-3-phosphate dehydrogenase (GAPDH) gene as the internal standard were measured. For amplifying the Oct-3/4 gene, sense primer OCT3 up (SEQ ID No.: 1) and antisense primer Oct3 down (SEQ ID No.: 2) were used, and for amplifying the GAPDH gene, sense primer GAPDH up (SEQ ID No.: 3) and antisense primer GAPDH down (SEQ ID No.: 4) were used. The composition of the PCR reaction solution and the reaction condition will be each presented below.

## CC(=O)c1ccc(/N=N/C(C(N)=O)=C2/NC(C)(C)Cc3ccccc32)cc1 [compound B, 2-(4-acetyl-phenylazo)-2-(3,3-dimethyl-3,4-dihydro-2H-isoquinoline-1-ylidene)-acetamide]
  expression of Oct-3/4 gene in comparison with ES cells cultured in the medium without the differentiation inhibiting agent: significantly promoted
  effect of keeping the expression of the Oct-3/4 gene relative to ESGRO: comparable with 1,000 units/mL of ESGRO

## CC1(C)Cc2ccccc2C(=C(N=Nc2cccc(Cl)c2)C(N)=O)N1 [C, 2-(3-chloro-phenylazo)-2-(3,3-dimethyl-3,4-dihydro-2H-isoquinoline-1-ylidene)-acetamide]
  expression of Oct-3/4 gene in comparison with ES cells cultured in the medium without the differentiation inhibiting agent: maintained the expression of the Oct-3/4 gene

## CC1(C)Cc2ccccc2C(=C(N=Nc2cccc([N+](=O)[O-])c2)C(N)=O)N1 [E, 2-(3,3-dimethyl-3,4-dihydro-2H-isoquinoline-1-ylidene)-2-(3-nitro-phenylazo)-acetamide]
  expression of Oct-3/4 gene in comparison with ES cells cultured in the medium without the differentiation inhibiting agent: maintained the expression of the Oct-3/4 gene

## COc1ccc(N=NC(C(N)=O)=C2NC(C)(C)Cc3ccccc32)cc1 [F, 2-(3,3-dimethyl-3,4-dihydro-2H-isoquinoline-1-ylidene)-2-(4-methoxy-phenylazo)-acetamide]
  expression of Oct-3/4 gene in comparison with ES cells cultured in the medium without the differentiation inhibiting agent: significantly promoted
  effect of keeping the expression of the Oct-3/4 gene relative to ESGRO: comparable with 1,000 units/mL of ESGRO
